The conditions of the data set: for surface tension liquid-gas: Pendant drop shape; for viscosity / mass density: 101.33 kPa, Liquid; for viscosity: Falling or rolling sphere viscometry; for mass density: Vibrating tube method.

± gives the expanded uncertainty stated by the source.

As to `COS(=O)(=O)[O-].Cn1cc[n+](C)c1` [1,3-dimethylimidazolium methylsulfate], under “298.15 K”, the surface tension liquid-gas is listed as 59.42 ± 0.8 mN/m, the viscosity was 75.5 ± 4.7 mPa·s and the mass density worked out at 1328.38 ± 1.6 kg/m3. Besides, where the note is “313.15 K”, the surface tension liquid-gas came to 58.99 ± 0.8 mN/m, the viscosity worked out at 40.8 ± 2.5 mPa·s and the mass density is 1317.85 ± 1.6 kg/m3.
With `CCCCn1cc[n+](C)c1.CCOS(=O)(=O)[O-]` [1-butyl-3-methyl-1H-imidazolium ethyl sulfate], where the note is “298.15 K”, the surface tension liquid-gas came out at 36.38 ± 0.51 mN/m, the viscosity came out at 379.1 ± 33 mPa·s and the mass density is recorded as 1198.93 ± 1.3 kg/m3. Besides, where the note is “313.15 K”, the surface tension liquid-gas worked out at 33.91 ± 0.48 mN/m, the viscosity amounted to 164 ± 12 mPa·s and the mass density worked out at 1188.69 ± 1.2 kg/m3.
On to `CCCCn1cc[n+](C)c1.COS(=O)(=O)[O-]` [1-butyl-3-methylimidazolium methyl sulfate], for which, for the setting “298.15 K”, the surface tension liquid-gas was 43.3 ± 1.2 mN/m and the mass density is reported as 1212.95 ± 8 kg/m3. Besides, for the setting “313.15 K”, the surface tension liquid-gas was 42.09 ± 1.1 mN/m, the viscosity stood at 104.2 ± 7.7 mPa·s and the mass density was determined as 1199.75 ± 7.8 kg/m3.
On to `CCOS(=O)(=O)[O-].CCn1cc[n+](C)c1` [1-ethyl-3-methylimidazolium ethyl sulfate], for which, under “298.15 K”, the viscosity was found to be 91.8 ± 6.2 mPa·s and the mass density was 1236.26 ± 8.3 kg/m3. Moreover, for the setting “313.15 K”, the surface tension liquid-gas was determined as 46.78 ± 1.2 mN/m, the viscosity was found to be 48.5 ± 3.2 mPa·s and the mass density was determined as 1226.79 ± 8.2 kg/m3.
On to `CCCCCCn1cc[n+](C)c1.CCOS(=O)(=O)[O-]` [1-hexyl-3-methylimidazolium ethyl sulfate], for which, for the setting “298.15 K”, the surface tension liquid-gas worked out at 31.77 ± 0.45 mN/m, the viscosity is given as 589 ± 57 mPa·s and the mass density amounted to 1150.6 ± 1.2 kg/m3. Moreover, for the setting “313.15 K”, the surface tension liquid-gas worked out at 29.63 ± 0.43 mN/m, the viscosity was found to be 236 ± 19 mPa·s and the mass density worked out at 1140.6 ± 1.1 kg/m3.
On to `CCCCCCn1cc[n+](C)c1.COS(=O)(=O)[O-]` [1-hexyl-3-methylimidazolium methyl sulfate], for which, where the note is “298.15 K”, the surface tension liquid-gas is recorded as 33.59 ± 0.48 mN/m, the viscosity is 383 ± 34 mPa·s and the mass density worked out at 1168.83 ± 1.2 kg/m3. In addition, for the setting “313.15 K”, the surface tension liquid-gas amounted to 33.54 ± 0.48 mN/m, the viscosity was 164.3 ± 12 mPa·s and the mass density was 1158.87 ± 1.2 kg/m3.
For `CCCCCCCC[n+]1ccn(C)c1.CCOS(=O)(=O)[O-]` [1-methyl-3-octylimidazolium ethyl sulfate], under “298.15 K”, the surface tension liquid-gas stood at 28.67 ± 0.41 mN/m and the mass density came out at 1115.93 ± 1.1 kg/m3. For the setting “313.15 K”, the surface tension liquid-gas was found to be 27.94 ± 0.41 mN/m, the viscosity was 275.2 ± 25 mPa·s and the mass density came out at 1106.2 ± 1.1 kg/m3.
In the case of `CCCCCCCC[n+]1ccn(C)c1.COS(=O)(=O)[O-]` [1-methyl-3-octylimidazolium methyl sulfate], under “298.15 K”, the surface tension liquid-gas is 30.41 ± 0.44 mN/m and the mass density amounted to 1114.47 ± 1.1 kg/m3. In addition, where the note is “313.15 K”, the surface tension liquid-gas was 30.03 ± 0.43 mN/m, the viscosity came out at 180.6 ± 15 mPa·s and the mass density was 1104.64 ± 1.1 kg/m3.

For orientation: surface tension liquid-gas means the force per length acting along the surface. For orientation: viscosity means the resistance of a fluid to flow. The mass density is mass per unit of volume.

These data come from the NIST ThermoML archive (doi:10.1021/je800863c).
